Tested on: HeLa cells
Experiment: alamarBlue cell growth assay, candidate KIF14 modulators in HeLa cells
Assay type: cell-based, human
Details: 72 hours; for IC50: Homo sapiens, HeLa, compounds 1 and 2: submaximal inhibition
Procedure: alamarBlue™ Assay for Cell Growth: The alamarBlue™ assay is a measure of cellular respiration and is used as a measure of live cell number. The internal environment of the proliferating cell is more reduced than that of non-proliferating cells. Specifically, the ratios of NADPH/NADP, FADH/FAD, FMNH/FMN, and NADH/NAF increase during proliferation. alamarBlue™ can be reduced by these metabolic intermediates and, therefore, can be used to monitor cell proliferation.
HeLa cells were plated at a density of 2000/cells per well in 10% DMEM in a 96-well plate (Costar, Cat. No. 3606) 20 hours prior to treatment with a KIF14 inhibitory compound in a series of dilutions (20 microliters of 11-fold concentrated solution of the compound added to 200 microliters of media). The cells were incubated at 37° C. for 72 hours prior to replacement of 100 microliters per well of the media with 10% (vol/vol) alamarBlue™ reagent. After incubation for 2 hours at 37° C., the plates were read on a spectrofluorimeter SpectroMax Gemini (excitation 544 nm, emission 590 nm). The background value (averaged from wells with no cells) was subtracted from each reading.

Row | SMILES | IC50 [nM] | Growth Inhibition in HeLa Cells ([Compound] 19.5 nm) [%] | Growth Inhibition in HeLa Cells ([Compound] 39.1 nm) [%] | Growth Inhibition in HeLa Cells ([Compound] 78.1 nm) [%] | Growth Inhibition in HeLa Cells ([Compound] 156.2 nm) [%] | Growth Inhibition in HeLa Cells ([Compound] 312.5 nm) [%] | Growth Inhibition in HeLa Cells ([Compound] 625 nm) [%] | Growth Inhibition in HeLa Cells ([Compound] 1250 nm) [%] | Growth Inhibition in HeLa Cells ([Compound] 2500 nm) [%] | Growth Inhibition in HeLa Cells ([Compound] 5000 nm) [%] | Growth Inhibition in HeLa Cells ([Compound] 10000 nm) [%]
1 | NC(=S)N/N=C\c1ccc(-c2ccccc2)cc1 [compound 1, 1,1′-biphenyl-4-carbaldehyde thiosemicarbazone] | 1000 | −3.58 | −4.74 | −2.50 | 5.29 | 10.32 | 12.76 | 19.73 | 51.68 | 48.18 | 40.98
2 | NC(=S)N/N=C/c1ccc(C2CCCCC2)cc1 [compound 3, 4-cyclohexylbenzaldehyde thiosemicarbazone] | 2800 | 8.97 | 5.97 | 8.16 | 6.91 | 8.88 | 12.32 | 7.53 | 44.36 | 83.84 | 95.02

Reference: patent US20070134660A1, “Methods for identifying modulators of kinesin activity” (ROSETTA INPHARMATICS LLC, priority 2003, published 2007)
